Data reported in patent publication US12616667B2, “Compositions and methods for improving neurological diseases and disorders” (CURASEN THERAPEUTICS, INC., priority 2021, dated 2026).
“Also recorded” adds a separate entry of the source.

Tests used:
[1] = system: healthy volunteers aged 55-75 years; test: CANTAB cognition battery, Cohort D2; type: in vivo, human; conditions: Compound 03-5 1, 3, 10 mg on Days 1-3, 2 hours after nadolol 3 mg
Procedure: CANTAB data from healthy adults 55-75 years of age (N=4) who received once-daily 3 mg nadolol and Compound 03-5 (1, 3, and 10 mg) on Day1, Day 2 and Day 3. […] Data are presented as mean changes from the within-day pre-dose assessment.
(§1) In Cohort D2, 8 healthy volunteers aged 55-75 years were admitted on Day −1 for a 5-day confinement period at the research facility. During this confinement, subjects received escalating doses of open label Compound 03-5 (1-10 mg) once-daily from Day 1 through Day 3 2 hours after pre-administration of open-label nadolol (3 mg) one each for the 3 dosing days according to the following schematic. Subjects remained in-residency until all study procedures are completed on Day 4.
? Compound 03-5 dose administration. Compound 03-5 was administered as escalating doses on Day 1 (1 mg), Day 2 (3 mg) and Day 3 (10 mg). CANTAB was conducted twice in all subjects on the day prior to start of dosing (Day −1) to familiarize subjects with the platform, and prior to dosing and approximately 3 hours after Compound 03-5 administration on Days 1, 2, and 3.

healthy subjects [2] = test: Peripheral effects of Compound 03-5 (glucose, potassium, tachycardia, tremor, palpitations) with nadolol; type: in vivo, human
Procedure: Data are presented as individual observations for all available subjects.
(§2) Eight healthy subjects aged 18-50 years were enrolled into Cohort D1 and received escalating doses of Compound 03-5 (3-12 mg) administered once daily 2 hours follow pre-administration of nadolol (1-40 mg). On all dosing days, study drug(s) were administered orally after an overnight fast of at least 8 hours.
Routine measures of ECG, vital signs, safety labs, physical exams and plasma sample collections for analysis of drug pharmacokinetics (PK) were undertaken according to the Schedule of Events (Table 1).
as §1

healthy subjects [3] = test: Heart rate by triplicate ECG after Compound 03-5 with or without nadolol; type: in vivo, human; conditions: 6 mg Compound 03-5 with pre-administration of 1 mg nadolol
Procedure: FIGS. 11A-11B show the effects of Compound 03-5 monotherapy (6 mg) on heart rate (FIG. 11A) and administered 2 hours after nadolol (1-40 mg) (FIG. 11B). Heart rate was measured by triplicate ECG recordings. Data are presented as means changes from time-matched measures recorded on the day before the first dose of study drug (Day −1).
Healthy volunteers were be enrolled into 2 cohorts in a study to undertake within-subject dose titration of Compound 03-5 and/or nadolol in order to explore doses/dose combinations that mitigate peripheral effects of Compound 03-5, e.g. on heart rate, while preserving possible central effects of Compound 03-5 on cerebral perfusion and pupillary light reflex.
Cohort D1 enrolled 8 healthy subjects and undertook an evaluation of the effects of treatment on ECG following repeat dosing of Compound 03-5 in the presence of escalating doses of nadolol according to following schematic.
as §2, with “hours. […]” for “hours.”

Ts65Dn mice = conditions: increasing brain NE levels; cited from earlier work
patients = test: Cerebral blood flow relative to baseline after a single dose (Example 1); type: in vivo, human
healthy subjects [4] = test: ASL MRI cerebral perfusion before and after a single dose (Example 3); type: in vivo, human
Procedure: In a clinical study, healthy subjects were administered doses of clenbuterol ranging from 20 to 160 μg and ASL MRI was conducted prior to and after dosing with an objective to ascertain whether this neuroimaging method enables the detection of a clinically relevant CNS signal.
In a region of interest (ROI) analysis focusing on the hippocampus, which is well understood to be affected in neurodegenerative disorders, a single dose of 80 μg of clenbuterol causes a robust increase in perfusion (see FIG. 7). […] Taken together with other cohorts in which ASL MRI was conducted, a clear dose response relationship is seen between dose of clenbuterol and cerebral perfusion (FIG. 8). […] Our hypothesis is that by improving cerebral perfusion, particularly in areas of the brain that are relevant for symptoms that are commonly found in neurodegenerative diseases such as PD and AD, the administration of a β-AR agonist (such as a β-agent) will have a positive effect on clinically relevant symptoms such as memory and cognition.

subjects = test: Visual verbal learning test (VVLT); type: in vivo, human; conditions: for effect on VVLT performance: crossover study, 3 agents plus placebo
Procedure: Subjects are presented 30 words on a screen, one at a time, for 1 second with a 1-second interval between words over a total of 1 minute. This is repeated in 3 trials. After each trial, subjects are asked to recall as many words as they can. After the third trial, there is a delay of 2.5 hours and subjects are then tested once for delayed recall. […] Since this was a crossover study, everyone who completed Part A was dosed with the 3 agents plus placebo.

healthy subjects [5] = test: Adaptive tracking test (visuomotor coordination and vigilance); type: in vivo, human; conditions: single dose 160 μg clenbuterol
Description: Adaptive tracking measures visuomotor coordination and vigilance. In this test, the subject uses a joystick to move a small dot so that it stays within a continuously moving circle on a computer screen (Boland 1984). During the test, the speed of the circle is adjusted in response to the subject's ability to keep the dot in the circle, ensuring that the test is adapted to the individual subject. […] The improvement shown by subjects is in the same range as that seen with subjects treated with the acetylcholinesterase inhibitor donepezil, which is in clinical use for the treatment of mild to moderate AD (Groeneveld 2016).

[6] = doses of 80 and 160 μg clenbuterol

## CC(C)(C)NC[C@H](O)c1cccc(C#N)n1 [Compound 03-5, (S)-6-(2-(tert-butylamino)-1-hydroxyethyl)picolinonitrile]
[1]
  performance in the CANTAB cognition battery: improvements in cognition; also recorded: improvements in performance
Healthy subjects [2]; Compound 03-5 monotherapy 0.3 mg-6 mg, Cohorts A1-A5
  hypokalemia (blood potassium levels): Dose-dependent increases in hypokalemia
Healthy subjects [3]
  mean maximum increase in heart rate: 7 beats per minute

## N[C@H](C(=O)O)[C@H](O)c1ccc(O)c(O)c1 [L-DOPS, L-threo-3,4-dihydroxyphenylserine]
Ts65Dn mice
  contextual learning: restored contextual learning

## CC(C)(C)NCC(O)c1cc(Cl)c(N)c(Cl)c1 (stereo not shown) [clenbuterol]
patients; single dose clenbuterol 160 μg
  cerebral blood flow (CBF) relative to baseline: robust global increase; also recorded: positive increase
patients; single dose clenbuterol 160 μg and nadolol 5 mg
  cerebral blood flow (CBF) relative to baseline: robust global increase
patients; single dose clenbuterol ranging from 30 to 160 μg, tracked over 3 days
  cerebral blood flow (CBF) relative to baseline: robust global increase
Healthy subjects [4]; clenbuterol dose of 40 μg
  cerebral perfusion increase as measured by CBF: minimal increase
Healthy subjects [4]; clenbuterol doses below 30 μg
  cerebral perfusion increase as measured by CBF: do not produce significant cerebral perfusion increases
Healthy subjects [4]; [6]
  improvements in perfusion in brain areas relevant to neuropathology of neurodegenerative disorders: ~25%
  increases in cerebral perfusion in hippocampus and thalamus: 20% to 25
Healthy subjects [4]; single dose 80 μg clenbuterol, 6 healthy subjects aged 44-52, hippocampus ROI
  increase in hippocampal perfusion, average: 25%
Healthy subjects [4]; single dose 160 μg clenbuterol, global, in particular hippocampus, thalamus, cortex
  cerebral perfusion, change from baseline: global increase in cerebral perfusion; also recorded: robust global increase
subjects
  effect on VVLT performance: positive effects
subjects; listed as Clenbuterol
  effect on VVLT performance: improved performance
subjects; immediate recall (Trial 1) and delayed recall, crossover study vs placebo
  VVLT improvement in correctly recalled words: 1.5 to 2 correctly recalled words
Healthy subjects [5]
  performance in adaptive tracking (percent time dot kept within moving circle): improved adaptive tracking; also recorded: improves
Healthy subjects [5]; healthy subjects, preliminary data
  cognition as measured by adaptive tracking and word recall: improves cognition

## CC(C)(C)NCC(O)COc1cccc2c1CC(O)C(O)C2 (stereo not shown) [nadolol]
Healthy subjects [2]; Cohort D1, pre-administered nadolol 1 mg up to 40 mg, Compound 03-5 3-12 mg
  peripheral effects of Compound 03-5 on heart rate, glucose, potassium, tachycardia, tremor and palpitations: blocked the peripheral effects
Healthy subjects [2]; Cohort D1, pre-administration of 1 mg nadolol, Compound 03-5 orally up to 6 mg
  effects of Compound 03-5 to increase heart rate and other peripheral effects including hyper glycemia and hypokalemia: substantially attenuated
Healthy subjects [2]; Cohort D2, pre-administered nadolol 3 mg, Compound 03-5 1-10 mg
  peripheral effects of Compound 03-5 on heart rate, etc.: similarly blocked the peripheral effects
Healthy subjects [2]; pre-administration of 1 mg nadolol
  effects of Compound 03-5 on blood glucose and potassium, tachycardia, tremor and palpitations: Concomitant attenuation
Healthy subjects [2]; subjects dosed with nadolol 1-40 mg, Cohorts D1 and D2
  hypokalemia caused by Compound 03-5 (blood potassium levels): attenuation of hypokalemia

## CC(C)NCC(O)COc1cccc2[nH]ccc12 (stereo not shown) [pindolol]
subjects
  effect on VVLT performance: detrimental effect

## CC(C)(C)NCC(O)c1ccc(O)c(CO)c1 (stereo not shown) [salbutamol]
subjects
  effect on VVLT performance: positive effects
